Reference: US20240400555A1 (Initial Therapeutics, Inc., priority 2023, published 2024)

Test system: MV-4-11 cells
Test: Cell Viability Assay in MV-4-11 Cells
Assay type: cell-based
Conditions: Homo sapiens, MV4-11, 72 h, MV-4-11 cells, 72 h, Cell-Titer Glo; read-out: IC50
In short: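 MV-4-11 cells at 7,000/well in IMDM with 10% FBS, exposed to compound for 72 h. Viability by CellTiter-Glo luminescence, normalized to DMSO as 100%, fitted with a four-parameter curve.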

Row | IC50 [nM] | SMILES
1 | 330 | N#Cc1cc(-c2cc3c(N(C(=O)c4ccc(-n5nnc6cccnc65)cc4F)[C@@H]4CCCNC4)nccc3s2)ccn1 [Example 386, N-[2-(2-cyano-4-pyridyl)thieno[3,2-c]pyridin-4-yl]-2-fluoro-N-[(3R)-3-piperidyl]-4-(triazolo[4,5-b]pyridin-3-yl)benzamide]
2 | 2100 | COc1ccc(C)c2c(N(C(=O)c3ccc(-c4cn(C)nn4)cc3)[C@@H]3CCCNC3)nccc12 [Example 872, N-(5-methoxy-8-methyl-1-isoquinolyl)-4-(1-methyltriazol-4-yl)-N-[(3R)-3-piperidyl]benzamide]
3 | 213 | Cc1cccc2ccnc(N(C(=O)c3ccc(Nc4nccc(CN5CCC(F)(F)CC5)n4)cc3)[C@@H]3CCCNC3)c12 [Example 972, (R)-4-((4-((4,4-difluoropiperidin-1-yl)methyl)pyrimidin-2-yl)amino)-N-(8-methylisoquinolin-1-yl)-N-(piperidin-3-yl)benzamide]
4 | 650 | Cc1cc2c(N(C(=O)c3ccc(-n4nnc5cccnc54)cc3F)[C@@H]3CCCNC3)nccc2s1 [Example 739, (R)-4-(3H-[1,2,3]triazolo[4,5-b]pyridin-3-yl)-2-fluoro-N-(2-methylthieno[3,2-c]pyridin-4-yl)-N-(piperidin-3-yl)benzamide]
5 | 2200 | Cc1cccc2ccnc(N(C(=O)c3ccc(N4CCOc5cccnc54)cc3F)[C@@H]3CCCNC3)c12 [Example 646, 4-(2,3-dihydropyrido[3,2-b][1,4]oxazin-4-yl)-2-fluoro-N-(8-methyl-1-isoquinolyl)-N-[(3R)-3-piperidyl]benzamide]
6 | 64 | Cc1cc(C)c2c(N(C(=O)c3ccc(-c4nnc(C)o4)cc3F)[C@@H]3CCCNC3)nccc2c1 [Example 643, (R)—N-(6,8-dimethylisoquinolin-1-yl)-2-fluoro-4-(5-methyl-1,3,4-oxadiazol-2-yl)-N-(piperidin-3-yl)benzamide]
7 | 200 | O=C(c1ccc(Nc2ncccn2)cc1F)N(c1nccc2ccccc12)[C@@H]1CCCNC1 [Example 927, (R)-2-fluoro-N-(isoquinolin-1-yl)-N-(piperidin-3-yl)-4-(pyrimidin-2-ylamino)benzamide]
8 | 26 | Cc1cccc2ccnc(N(C(=O)c3ccc(-c4cn(CCC#N)nn4)cc3F)[C@@H]3CCCNC3)c12 [Example 888, 4-[1-(2-cyanoethyl)triazol-4-yl]-2-fluoro-N-(8-methyl-1-isoquinolyl)-N-[(3R)-3-piperidyl]benzamide]
9 | 11 | Cc1cccc2ccnc(N(C(=O)c3ccc(Nc4nccc(-c5ccncc5)n4)cc3F)[C@@H]3CCCNC3)c12 [Example 558, (R)-2-fluoro-N-(8-methylisoquinolin-1-yl)-N-(piperidin-3-yl)-4-((4-(pyridin-4-yl)pyrimidin-2-yl)amino)benzamide]
10 | 170 | Cc1ccc(F)c2ccnc(N(C(=O)c3ccc(Nc4ncccn4)cc3F)[C@@H]3CCCNC3)c12 [Example 661, (R)-2-fluoro-N-(5-fluoro-8-methylisoquinolin-1-yl)-N-(piperidin-3-yl)-4-(pyrimidin-2-ylamino)benzamide]
11 | 6.9 | Cc1cc(Cl)cc2ccnc(N(C(=O)c3ccc(-c4cn(C)nn4)cc3F)[C@@H]3CCCNC3)c12 [Example 444, N-(6-chloro-8-methyl-1-isoquinolyl)-2-fluoro-4-(1-methyltriazol-4-yl)-N-[(3R)-3-piperidyl] benzamide]
12 | 420 | COc1cc(C(=O)N(c2nccc3cc(Cl)cc(C)c23)[C@@H]2CCCNC2)ccc1-c1nnc(C)s1 [Example 706, (R)—N-(6-chloro-8-methylisoquinolin-1-yl)-3-methoxy-4-(5-methyl-1,3,4-thiadiazol-2-yl)-N-(piperidin-3-yl)benzamide]
13 | 100 | [2H]C([2H])([2H])c1nnc(-c2ccc(C(=O)N(c3nccc4cc(Cl)cc(C)c34)[C@@H]3CCCNC3)c(F)c2)s1 [Example 766, (R)—N-(6-chloro-8-methylisoquinolin-1-yl)-2-fluoro-4-(5-(methyl-d3)-1,3,4-thiadiazol-2-yl)-N-(piperidin-3-yl)benzamide]
14 | 100 | COCc1cn(-c2ccc(C(=O)N(c3nccc4cc(Cl)cc(C)c34)[C@@H]3CCCNC3)cn2)nn1 [Example 631, (R)—N-(6-chloro-8-methylisoquinolin-1-yl)-6-(4-(methoxymethyl)-1H-1,2,3-triazol-1-yl)-N-(piperidin-3-yl)nicotinamide]
15 | 14 | Cc1cc(C#CC(C)(C)O)cc2ccnc(N(C(=O)c3ccc(-n4nnc5cccnc54)cc3F)[C@@H]3CCCNC3)c12 [Example 587, (R)-4-(3H-[1,2,3]triazolo[4,5-b]pyridin-3-yl)-2-fluoro-N-(6-(3-hydroxy-3-methylbut-1-yn-1-yl)-8-methylisoquinolin-1-yl)-N-(piperidin-3-yl)benzamide]
16 | 87 | Cc1nnc(-c2ccc(C(=O)N(c3nccc4cc(Cl)cc(C)c34)[C@@H]3CCCNC3)cc2)s1 [Example 755, (R)—N-(6-chloro-8-methylisoquinolin-1-yl)-4-(5-methyl-1,3,4-thiadiazol-2-yl)-N-(piperidin-3-yl)benzamide]

Row | IC50 [nM] | SMILES
17 | 220 | Cc1cccc2ccnc(N(C(=O)c3ccc(Nc4nccc(CCO)n4)cc3F)[C@@H]3CCCNC3)c12 [Example 736, (R)-2-fluoro-4-((4-(2-hydroxyethyl)pyrimidin-2-yl)amino)-N-(8-methylisoquinolin-1-yl)-N-(piperidin-3-yl)benzamide]
18 | 6300 | Cn1cc(-c2ccc(C(=O)N(c3nccc4sc(-c5cccc(C(=O)NCCO)c5)cc34)[C@@H]3CCCNC3)c(F)c2)nn1 [Example 542, 2-fluoro-N-[2-[3-(2-hydroxyethylcarbamoyl)phenyl]thieno[3,2-c]pyridin-4-yl]-4-(1-methyltriazol-4-yl)-N-[(3R)-3-piperidyl]benzamide]
19 | 180 | O=C(NCc1ccccc1)c1ccc2c(N(C(=O)c3ccc(-n4nnc5cccnc54)cc3F)[C@@H]3CCCNC3)nccc2c1 [Example 373, (R)-1-(4-(3H-[1,2,3]triazolo[4,5-b]pyridin-3-yl)-2-fluoro-N-(piperidin-3-yl)benzamido)-N-benzylisoquinoline-6-carboxamide]
20 | 26 | Cc1cccc2ccnc(N(C(=O)c3ccc(Nc4nccc(N5CCOCC5C#N)n4)cc3F)[C@@H]3CCCNC3)c12 (stereo partly drawn) [Example 955, 4-((4-(3-cyanomorpholino)pyrimidin-2-yl)amino)-2-fluoro-N-(8-methylisoquinolin-1-yl)-N—((R)-piperidin-3-yl)benzamide]
21 | 34 | CCc1nnc(-c2ccc(C(=O)N(c3nccc4cccc(C)c34)[C@@H]3CCCNC3)c(F)c2)s1 [Example 837, (R)-4-(5-ethyl-1,3,4-thiadiazol-2-yl)-2-fluoro-N-(8-methylisoquinolin-1-yl)-N-(piperidin-3-yl)benzamide]
22 | 250 | CCc1nnc(-c2ccc(C(=O)N(c3nccc4scc(Cl)c34)[C@@H]3CCCNC3)nc2)s1 [Example 668, N-(3-chlorothieno[3,2-c]pyridin-4-yl)-5-(5-ethyl-1,3,4-thiadiazol-2-yl)-N-[(3R)-3-piperidyl]pyridine-2-carboxamide]
23 | > 10000 | Cc1cccc2ccnc(N(C(=O)c3cccc(C#CCCC(=O)O)c3)[C@@H]3CCCNC3)c12 [Example 590, (R)-5-(3-((8-methylisoquinolin-1-yl)(piperidin-3-yl)carbamoyl)phenyl)pent-4-ynoic acid]
24 | 57 | Cc1cc(Cl)cc2ccnc(N(C(=O)c3ccc(-c4cn(C)nn4)nc3)[C@@H]3CCCNC3)c12 [Example 884, N-(6-chloro-8-methyl-1-isoquinolyl)-6-(1-methyltriazol-4-yl)-N-[(3R)-3-piperidyl]pyridine-3-carboxamide]
25 | 76 | Cc1cccc2ccnc(N(C(=O)c3ccc(-c4cnn(C)c4N)cc3F)[C@@H]3CCCNC3)c12 [Example 388, 4-(5-amino-1-methyl-pyrazol-4-yl)-2-fluoro-N-(8-methyl-1-isoquinolyl)-N-[(3R)-3-piperidyl]benzamide]
26 | 1000 | NC(=O)/C=C/c1cc2c(N(C(=O)c3ccc(-n4nnc5cccnc54)cc3F)[C@@H]3CCCNC3)nccc2s1 [Example 442, N-[2-[(E)-3-amino-3-oxo-prop-1-enyl]thieno[3,2-c]pyridin-4-yl]-2-fluoro-N-[(3R)-3-piperidyl]-4-(triazolo[4,5-b]pyridin-3-yl)benzamide]
27 | 63 | Nc1ccc(-c2cc3c(N(C(=O)c4ccc(-n5nnc6cccnc65)cc4F)[C@@H]4CCCNC4)nccc3s2)cc1 [Example 412, N-[2-(4-aminophenyl)thieno[3,2-c]pyridin-4-yl]-2-fluoro-N-[(3R)-3-piperidyl]-4-(triazolo[4,5-b]pyridin-3-yl)benzamide]
28 | 130 | Cc1cccc2ccnc(N(C(=O)c3ccc(Nc4nccc(N[C@H]5CC[C@H](O)CC5)n4)cc3F)[C@@H]3CCCNC3)c12 [Example 946, 2-fluoro-4-(4-((1r,4r)-4-hydroxycyclohexylamino)pyrimidin-2-ylamino)-N-(8-methylisoquinolin-1-yl)-N—((R)-piperidin-3-yl)benzamide]
29 | 250 | Cc1cccc2ccnc(N(C(=O)c3ccc(Nc4nccc(N(C)CCC#N)n4)cc3F)[C@@H]3CCCNC3)c12 [Example 949, (R)-4-((4-((2-cyanoethyl)(methyl)amino)pyrimidin-2-yl)amino)-2-fluoro-N-(8-methylisoquinolin-1-yl)-N-(piperidin-3-yl)benzamide]
30 | 75 | Cn1ccc2ccnc(N(C(=O)c3ccc(Nc4ncccn4)cc3F)[C@@H]3CCCNC3)c21 [Example 926, (R)-2-fluoro-N-(1-methyl-1H-pyrrolo[2,3-c]pyridin-7-yl)-N-(piperidin-3-yl)-4-(pyrimidin-2-ylamino)benzamide]
31 | 89 | NC(=O)c1cc(-c2cc3c(N(C(=O)c4ccc(-n5nnc6cccnc65)cc4F)[C@@H]4CCCNC4)nccc3s2)cs1 [Example 568, 4-[4-[[2-fluoro-4-(triazolo[4,5-b]pyridin-3-yl)benzoyl]-[(3R)-3-piperidyl]amino]thieno[3,2-c]pyridin-2-yl]thiophene-2-carboxamide]
